The text below walks through data of US20240279214A1, “ALPHA4 BETA7 INEGRIN ANTAGONISTS AND USES THEREOF” (XinThera, Inc., priority 2022, published 2024).

pEC50: −log10 of the molar value.

T1 sequence (P13612 34-1032): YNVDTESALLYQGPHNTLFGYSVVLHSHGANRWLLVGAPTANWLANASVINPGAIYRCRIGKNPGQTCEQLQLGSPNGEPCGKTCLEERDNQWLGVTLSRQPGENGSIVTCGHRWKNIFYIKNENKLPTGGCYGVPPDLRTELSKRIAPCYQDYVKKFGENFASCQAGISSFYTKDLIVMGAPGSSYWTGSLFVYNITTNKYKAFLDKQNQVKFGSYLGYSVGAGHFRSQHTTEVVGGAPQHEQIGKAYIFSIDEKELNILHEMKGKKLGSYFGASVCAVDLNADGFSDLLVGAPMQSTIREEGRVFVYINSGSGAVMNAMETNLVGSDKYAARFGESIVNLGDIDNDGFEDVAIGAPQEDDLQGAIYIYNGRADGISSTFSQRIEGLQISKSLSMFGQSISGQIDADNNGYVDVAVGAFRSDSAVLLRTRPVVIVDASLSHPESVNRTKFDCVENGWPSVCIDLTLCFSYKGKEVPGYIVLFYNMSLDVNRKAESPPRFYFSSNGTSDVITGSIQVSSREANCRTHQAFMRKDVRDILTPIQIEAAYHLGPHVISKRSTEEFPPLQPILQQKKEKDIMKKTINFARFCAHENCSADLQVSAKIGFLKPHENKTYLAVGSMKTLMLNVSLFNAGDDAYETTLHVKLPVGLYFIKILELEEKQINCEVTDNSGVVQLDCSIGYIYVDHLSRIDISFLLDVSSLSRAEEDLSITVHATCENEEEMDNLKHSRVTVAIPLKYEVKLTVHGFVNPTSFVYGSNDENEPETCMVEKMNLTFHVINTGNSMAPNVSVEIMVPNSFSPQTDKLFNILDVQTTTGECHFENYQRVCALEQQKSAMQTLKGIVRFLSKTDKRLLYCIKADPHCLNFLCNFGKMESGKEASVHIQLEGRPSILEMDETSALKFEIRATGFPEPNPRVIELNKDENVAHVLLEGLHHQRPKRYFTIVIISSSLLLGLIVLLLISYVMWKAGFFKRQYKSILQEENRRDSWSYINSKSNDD
T1 sequence (P05556 21-798): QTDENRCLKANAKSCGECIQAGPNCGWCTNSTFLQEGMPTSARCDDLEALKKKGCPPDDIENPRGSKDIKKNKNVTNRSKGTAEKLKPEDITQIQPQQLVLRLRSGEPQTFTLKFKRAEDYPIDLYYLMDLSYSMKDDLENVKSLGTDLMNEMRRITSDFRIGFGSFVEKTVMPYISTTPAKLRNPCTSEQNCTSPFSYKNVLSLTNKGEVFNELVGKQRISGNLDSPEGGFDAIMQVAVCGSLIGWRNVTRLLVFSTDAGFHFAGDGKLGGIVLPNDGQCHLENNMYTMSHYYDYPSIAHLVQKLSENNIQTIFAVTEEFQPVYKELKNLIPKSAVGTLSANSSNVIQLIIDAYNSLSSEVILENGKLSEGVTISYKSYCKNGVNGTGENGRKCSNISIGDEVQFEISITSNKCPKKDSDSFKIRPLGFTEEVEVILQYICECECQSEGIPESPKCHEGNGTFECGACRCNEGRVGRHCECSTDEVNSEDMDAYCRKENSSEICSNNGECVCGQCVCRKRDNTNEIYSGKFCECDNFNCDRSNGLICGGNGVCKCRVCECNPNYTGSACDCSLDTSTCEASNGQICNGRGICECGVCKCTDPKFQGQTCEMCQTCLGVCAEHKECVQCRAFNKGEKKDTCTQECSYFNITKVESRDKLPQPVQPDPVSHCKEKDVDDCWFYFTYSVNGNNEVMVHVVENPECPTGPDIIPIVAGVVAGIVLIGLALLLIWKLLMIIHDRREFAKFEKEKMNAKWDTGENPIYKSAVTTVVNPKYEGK

This assay has as its target T1, a4b1 integrin interaction with VCAM-1 (Homo sapiens, UniProt P05556+P13612).
T1 construct: capture of a4b1 integrin expressing cells Jurkat; endogenous in cells; host or cells: Jurkat
In words: a4b1 Cell Capture Assay (Jurkat cells on VCAM-1 Fc coated plates). The class given is cell-based. Particulars: 50% human serum, 1 mM MgCl2, 1 hour incubation, CellTiter-Glo luminescence. The protocol:
The potency of inhibitors in preventing a4b1 integrin interaction with VCAM-1 was measured by monitoring the capture of a4b1 integrin expressing cells Jurkat on recombinant human VCAM-1 Fc chimera protein-coated plates. The protein was a fusion between human VCAM-1 (Phe25-Glu698) Accession #P19320, Accession #AAY82472) and human IgG1 (Pro100-Lys330)] (R&D Systems, Catalog #862-VC). 96-well plates (Thermofisher, Catalog #136102) were coated with the recombinant protein by dispensing 100 μL of 0.25 μg/mL per well. After a quick spin to settle down the coating solution using plate centrifuge, plates were incubated overnight at 4° C. in a moisture chamber. On Day 2, the plates were washed with PBS using a Bluecatbio Blue®Washer (GentleSpin wash, 3 cycles, pressure=1, volume 150 uL). Blocking solution (1.0% BSA in PBS, Sigma, Catalog #A7979) was then added at 200 uL/well, and the plates were quickly spun to settle down blocking buffer and incubated in cell culture incubator at 37° C. and 5% CO2 for 1 hour. The plates were then washed with 0.1% BSA in PBS using a Bluecatbio Blue®Washer (GentleSpin wash, 3 cycles, pressure=1, volume 150 uL). Jurkat cells suspended in assay medium (1 mM MgCl2 25 mM HEPES and 50% human serum, Sigma, Catalog #H4522) at a density of 0.5×10^6 cells/mL were added at 100 uL/well. Each compound evaluated was prepared as a DMSO stock solution. Test compounds were evaluated with a 9-point serial dilution curve and were added to the plates using a Tecan D300e Digital dispenser. Each titration curves were performed in triplicate on the same plate, and most of compounds were retested in different dates multiple times. The plates were shaken at 300 rpm on orbital plate shaker for 3 minutes to mix the cells and compounds, quickly spun to settle the cells and solution, and incubated in cell culture incubator at 37° C. and 5% CO2. After 1 hour incubation, the unbound cells were washed away with RPMI1640 medium supplemented with 1 mM MgCl2 and 1% BSA) (wash buffer) using a Bluecatbio Blue®Washer (MagbeadsSpin wash, 1 cycle, pressure 1, volume=150 uL). After wash buffer removal, A mixture of wash buffer/CellTiter-Glo® Reagent (Pormega, catalog #G7573) at 1:1 (V/V) was added at volume of 100 uL to each well. The plates were placed in a chamber at 25° C. and incubated for 30 minutes. Luminescence was recorded using a Envision plate reader 2105 according to CellTiter-Glo protocol.
The mean luminescence signals from negative control wells without VCAM-1 coating and compound treatment (cells only) was defined as 100% binding inhibition, and the mean luminescence signals from positive control wells with VCAM-1 coating but without compound treatment (VCAM-1 and cells only) was defined as 0% binding inhibition. The luminescence signals from other compound treated wells were normalized in percentage scale accordingly. The normalized mean % inhibition data were plotted against logarithmic compound concentration in nanomolar and were fitted with 4-parameter logistic model to obtain IC50 for each compound.
On the technique in general: In ATP-based viability assays light output follows the ATP content of the culture.
For `Cc1cc2cc(c1F)[C@H](CC(=O)O)NC(=O)[C@@H](n1cc(CCN3CC(F)C3)c(C(F)(F)F)cc1=O)c1cccc(c1)Oc1cccc(C)c1-2` (relative stereo) [Example 1, rel-2-((5S,8S)-1^4-fluoro-5-(5-(2-(3-fluoroazetidin-1-yl)ethyl)-2-oxo-4-(trifluoromethyl)pyridin-1(2H)-yl)-1^5,2^6-dimethyl-6-oxo-3-oxa-7-aza-1,4(1,3),2(1,2)-tribenzenacyclooctaphane-8-yl)acetic acid], the negative-log EC50 (pEC50) (as a rule, the EC50 on a negative log10 scale, so that one unit is a factor of ten) was 5.68.

Consider `Cc1cc2cc(c1F)[C@H](CC(=O)O)NC(=O)[C@@H](n1cc(CCN3CC(F)C3)c(C(F)(F)F)cc1=O)c1cc(ccc1F)Oc1cccc(C)c1-2` (relative stereo) [Example 7, [(14R*,17S)-12,19-difluoro-14-{5-[2-(3-fluoroazetidin-1-yl)ethyl]-2-oxo-4-(trifluoromethyl)pyridin-1-yl}-3,20-dimethyl-15-oxo-8-oxa-16-azatetracyclo[16.3.1.1^{9,13}.0^{2,7}]tricosa-1(21),2(7),3,5,9(23),10,12,18(22),19-nonaen-17-yl]acetic acid], for which the pEC50 was 7.21.

In turn, `Cc1cc(C2CC2)cc2c1-c1cc(c(F)c(C(F)(F)F)c1)[C@H](CC(=O)O)NC(=O)[C@@H](n1cc(CCN3CC(F)C3)c(C(F)(F)F)cc1=O)c1cccc(c1)O2` (relative stereo) [Example 10, [(14R*,17S)-5-cyclopropyl-19-fluoro-14-{5-[2-(3-fluoroazetidin-1-yl)ethyl]-2-oxo-4-(trifluoromethyl)pyridin-1-yl}-3-methyl-15-oxo-20-(trifluoromethyl)-8-oxa-16-azatetracyclo[16.3.1.1^{9,13}.0^{2,7}]tricosa-1(21),2(7),3,5,9,11,13(23),18(22),19-nonaen-17-yl]acetic acid] had a pEC50 of 4.92.

In turn, `Cc1cccc2c1-c1cc(c(F)c(C(F)(F)F)c1)[C@H](CC(=O)O)NC(=O)[C@@H](n1cc(CCN3CC(F)C3)c(C(F)(F)F)cc1=O)c1cc(Cl)cc(c1)O2` (relative stereo) [Example 15, [(14R*,17S)-11-chloro-19-fluoro-14-{5-[2-(3-fluoroazetidin-1-yl)ethyl]-2-oxo-4-(trifluoromethyl)pyridin-1-yl}-3-methyl-15-oxo-20-(trifluoromethyl)-8-oxa-16-azatetracyclo[16.3.1.1^{9,13}.0^{2,7}]tricosa-1(22),2(7),3,5,9,11,13(23),18,20-nonaen-17-yl]acetic acid] had a pEC50 of 6.06.

For the compound `Cc1cc(C)c2c(c1)Oc1cccc(c1)[C@H](n1cc(CCCN(C)C)c(C(F)(F)F)cc1=O)C(=O)N[C@@H](CC(=O)O)c1cn-2nc1C(F)(F)F` (relative stereo) [Example 18, [(13S,16R*)-16-{5-[3-(dimethylamino)propyl]-2-oxo-4-(trifluoromethyl)pyridin-1-yl}-5,7-dimethyl-15-oxo-11-(trifluoromethyl)-2-oxa-9,10,14-triazatetracyclo[15.3.1.1^{9,12}.0^{3,8}]docosa-1(20),3(8),4,6,10,12(22),17(21),18-octaen-13-yl]acetic acid], the pEC50 is 6.16.

Compound `Cc1cc2cc(c1F)[C@H](CC(=O)O)NC(=O)[C@@H](n1cc(CCN3CC(F)C3)c(C(F)(F)F)cc1=O)c1cc(Cl)cc(c1)Oc1cccc(C)c1-2` (single isomer, unassigned) [Example 3] showed a pEC50 of 6.44.

For the compound `Cc1cc(Cl)cc2c1-c1cc(c(F)c(C(F)(F)F)c1)[C@H](CC(=O)O)NC(=O)[C@@H](n1cc(CCN3CC(F)C3)c(C(F)(F)F)cc1=O)c1cccc(c1)O2` (single isomer, unassigned) [Example 11], the pEC50 is 5.34.
